US20110245190A1, “METHOD FOR IMPROVING POST SURGERY VISUAL ACUITY OUTCOME WITH AZITHROMYCIN” (priority 2009, published 2011)

Test system: patients with contact lens-related dry eye disease (CLDE)
Assay: Study of azithromycin 1% ophthalmic solution vs rewetting drops over four weeks in contact lens-related dry eye disease (Example 2)
Type: in vivo, human
Source text: The objective of this study is to compare the efficacy of study drug, AZASITE® (azithromycin ophthalmic solution) 1%, versus rewetting drops (Visine for Contacts™) over a four week treatment period in patients with contact lens-related dry eye disease (CLDE).
Subjects are 18 years of age or older. Subjects have a positive diagnosis of CLDE based on their responses to the Contact Lens Dry Eye Questionnaire (CLDEQ, Nichols et al, Cornea 21:469-75 (2002)) and a score of ≧2, (i.e., moderate severity on a 0-4 scale, where 0=no ocular dryness and 4=very severe ocular dryness) on a self-reported assessment of ocular dryness at the screening Visit. A total of 50 subjects are enrolled in the study.
Subjects were asked to rate their level of ocular dryness on a 0-4 scale. Tear osmolarity was then assessed for each eye using the TearLab Osmolarity System®. Subjects were then instructed to remove their contact lenses and slit-lamp biomicroscopy and external eye exams were performed. Fluorescein corneal staining was then performed on each eye (5 μl of 2% fluorescein applied to the ocular surface) and graded according to National Eye Institute (NEI) criteria.
Eligible subjects were then randomized to receive either azithromycin 1% ophthalmic solution (AzaSite®), or rewetting drops (Visine for Contacts™) in a 1:1 ratio and they were not masked as to the treatment assignment. Subjects randomized to azithromcyin 1% were instructed to administer one drop to each eye BID for the first two days and then one drop QD for days 3-29. Subjects randomized to rewetting drops were instructed to administer one to two drops QID throughout the 29 day treatment period. The first dose of study medication was self-administered at the clinic once dosing instructions were provided. […]
Concomitant medication usage was recorded, an AE query performed, study medication and diary cards were collected. Subjects underwent habitual HCVA and LCVA assessment, completed the CLDEQ, and had tear osmolarity readings measured prior to removing their contact lenses. […]

For `CC[C@H]1OC(=O)[C@H](C)[C@@H](O[C@H]2C[C@@](C)(OC)[C@@H](O)[C@H](C)O2)[C@H](C)[C@@H](O[C@@H]2O[C@H](C)C[C@H](N(C)C)[C@H]2O)[C@](C)(O)C[C@@H](C)CN(C)[C@H](C)[C@@H](O)[C@]1(C)O` [azithromycin], the “mean ocular dryness scores, AM assessment” value (FIG. 2, prior to instilling study medication) was “lower”, the “mean ocular dryness scores, PM assessment” value (FIG. 3, prior to lens removal) was “lower” and the “mean daily duration of comfortable contact lens wear time” value (each of the weekly endpoints (Weeks 1-4), FIG. 1) was “longer”.
